In general, fraction unbound refers to the share of the substance not bound to proteins or other matrix. Low values mean little free substance, high ones much free substance. What is called inhibition is how much of the control response was suppressed.

Results on one compound are retold here after paper PMC5740082, “Identification of a CARM1 Inhibitor with Potent In Vitro and In Vivo Activity in Preclinical Models of Multiple Myeloma” (Scientific Reports, 2017).

Series [1] is described as follows: Plasma protein binding (equilibrium dialysis), rat plasma. In kind it is in vitro ADME. The note with it: Sprague-Dawley, pH 7.4. Here is the method: Hepatocyte stability, plasma protein binding and cytochrome P450 assays were performed using standard procedures. Details can be found in Supplementary Methods. […]
Plasma protein binding was assessed b y equilibrium dial ysis, utilizing the HT-dial ysis cell format with a cellulose semi- permeable membran e (molecular wei ght cut-off of 5000 Da).
(pH 7.4) and 100% mixed gender pooled human, pooled male CD -1 mouse or Sprague-Dawle y rat plasma. The buffer solution was added to one s ide of the membrane and the plasma solution to the other side. Incubations were performed in duplicate for 16 h, at 37°C, in order to allow the compounds to reach equi librium. Haloperidol was incubated in parallel as the control compound for each speci es. At the end of the incubation time, samples were taken from both sides of the membrane. Following protein precipitation, the samples were anal yz ed b y LC-MS/MS using two sets of calibration standards for protein free (7 poi nts) and protein containi ng solutions (6 points). Samples were quantified using standard curves prepared in the equivalent matrix. The fraction unbound in plas ma (fu) was calculated us ing the followin g equ ation: […]
In general terms: In equilibrium dialysis only unbound substance equilibrates across the membrane.

The target of series [2] is T1, rat recombinant kappa-opioid (KOP) receptor (Rattus norvegicus, UniProt P34975).
T1 construct: purchased CEREP, Redmond, WA (ExpresSProfile screen)
T1 sequence (P34975 whole entry): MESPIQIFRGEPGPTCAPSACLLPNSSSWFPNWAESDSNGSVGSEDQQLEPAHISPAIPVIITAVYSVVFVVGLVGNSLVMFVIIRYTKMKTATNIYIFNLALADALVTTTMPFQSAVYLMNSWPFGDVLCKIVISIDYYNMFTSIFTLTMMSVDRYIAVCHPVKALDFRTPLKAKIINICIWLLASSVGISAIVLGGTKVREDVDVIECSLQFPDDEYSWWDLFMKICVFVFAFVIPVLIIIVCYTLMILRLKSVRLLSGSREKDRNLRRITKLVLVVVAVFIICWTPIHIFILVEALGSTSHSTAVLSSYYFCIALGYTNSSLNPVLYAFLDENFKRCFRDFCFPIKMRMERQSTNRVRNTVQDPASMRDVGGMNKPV
The series can be described thus: kappa-opioid (KOP) receptor binding assay. The text has this:
[…]. […] […]. […] […].

In another series the test system is TF-1. The series can be described thus: Six-day cell proliferation assay (CellTiter-Glo). In kind it is cell-based. The note with it: Homo sapiens, 144 h; TF-1 (AML M6; Erythroleukemia), 6 days; read-out: Average day 6 gIC50. Here is the method:
(§1) Six-day cell proliferation assay
(§2) Optimal cell seeding density was determined empirically for each cell lines by examining the gro wth of a wide ran ge o f seedin g densities in a 3 84-well formatto identify conditio ns that permitted maximal and continued proliferation for 6 days. Cells were plat ed in duplicate plates 24 hours before treatment with a 20- point two-fold dilution series of compound or 0.15%
(§3) DMSO. Plates were incubated for 6 da ys at 37°C in 5% CO2. Cells were th en l ysed with CellTiter-Glo (CTG) (Pr omega) and chemiluminescent sign al was detected with an appropriat e microplate reader. In addition, an untreated plate of cells was harvested at the time of compound addition (T0) to quantif y the initial cell densit y. CTG values obtained after 6 days of treatment were expressed as a percent of the T0 value and plotted against compound concentration. […]
(§4) Supplementary Table S 3. […] A p anel […]
(§5) of cell lines was treated with EZM2302fo r 6da ys in a proliferation ass a y. Cell densit y (as assessed b y CellTiter-Gl o) at da y 0 was compared to day 6 to det ermine growth IC 50 values , calculated us i n g a f our parameter dose response equation.
(§6) Cell Type According to Cell Type Category Cell L ine Name gIC50 Average day 6 Standard Replicates

The next series concerns NOMO-1. Nature of the series: Six-day cell proliferation assay (CellTiter-Glo). In kind it is cell-based. The note with it: Homo sapiens, 144 h; NOMO-1 (AML), 6 days; read-out: Average day 6 gIC50. Here is the method: as §1, §2, §3, §4, §5, §6
The test system of another series is UT-7. The series can be described thus: Six-day cell proliferation assay (CellTiter-Glo). In kind it is cell-based. The note with it: Homo sapiens, UT7, 144 h; UT-7 (AML), 6 days; read-out: Average day 6 gIC50. Here is the method: as §1, §2, §3, §4, §5, §6
Background: Cellular ATP, detected with luciferase, serves as a proxy for viable cell number.

For the next series, the system named is SHI-1. The series can be described thus: Six-day cell proliferation assay (CellTiter-Glo). In kind it is cell-based. The note with it: 144 h; SHI-1 (AML), 6 days; read-out: Average day 6 gIC50. Here is the method:
as §1, §2, §3, §4, §5, §6

The test system of the next series is RPMI-8226. The series can be described thus: Six-day cell proliferation assay (CellTiter-Glo). In kind it is cell-based. The note with it: Homo sapiens, 144 h; RPMI-8226 (MM), 6 days; read-out: Average day 6 gIC50. The procedure:
as §1, §2, §3, §4, §5, §6

In another series the test system is SK-MM-2. Nature of the series: Six-day cell proliferation assay (CellTiter-Glo). In kind it is cell-based. The note with it: Homo sapiens, 144 h; SK-MM-2 (Plasma cell leukemia), 6 days; read-out: Average day 6 gIC50. Here is the method: as §1, §2, §3, §4, §5, §6
Another series relates to UCSD-AML1. Nature of the series: Six-day cell proliferation assay (CellTiter-Glo). In kind it is cell-based. The note with it: 144 h; UCSD-AML1 (AML), 6 days; read-out: Average day 6 gIC50. Here is the method: as §1, §2, §3, §4, §5, §6
The test system of another series is SH-2. The series can be described thus: Six-day cell proliferation assay (CellTiter-Glo). In kind it is cell-based. The note with it: 144 h; SH-2 (AML), 6 days; read-out: Average day 6 gIC50. The procedure: as §1, §2, §3, §4, §5, §6
For the next series, the system named is OPM-2. The series can be described thus: Six-day cell proliferation assay (CellTiter-Glo). In kind it is cell-based. The note with it: Homo sapiens, 144 h; OPM-2 (MM), 6 days; read-out: Average day 6 gIC50. Here is the method: as §1, §2, §3, §4, §5, §6
A further series has as its system U266 B1. The series can be described thus: Six-day cell proliferation assay (CellTiter-Glo). In kind it is cell-based. The note with it: Homo sapiens, U-266, 144 h; U266 B1 (MM), 6 days; read-out: Average day 6 gIC50. Here is the method:
as §1, §2, §3, §4, §5, §6

In turn, `CNC[C@@H](O)COc1ccc(Cl)c(-c2nc(-c3c(C)noc3C)c(C)c(N3CC4(CCN(C(=O)OC)CC4)C3)n2)c1` [EZM2302] returned a fraction unbound at 16 h, 5 µM in series [1] of 0.74. Moreover, the IC50 was 3.3 µM in [2]; 25.9 µM in the series on TF-1; above 36.5 µM in the series with NOMO-1; above 27.6 µM in the series on UT-7; above 36 µM in the series on SHI-1; above 26.1 µM in the series with RPMI-8226. The IC50 was 20.4 µM with SK-MM-2; above 36.7 µM in the series on UCSD-AML1; above 36.7 µM in the series with SH-2; 4.95 µM in the series on OPM-2; 22.1 µM in the series with U266 B1. Besides, the inhibition at 10 µM in series [2] (10 μM) was 69%.
